From paper PMC8199578, “Anti-Inflammatory, Antiallergic, and COVID-19 Main Protease (M^pro) Inhibitory Activities of Butenolides from a Marine-Derived Fungus Aspergillus terreus” (Molecules, 2021)
Like-named read-outs stand apart in the source and are kept apart here.

Assays:
[1] = MTT cell viability assay in mast cells; assay type: cell-based; conditions: rat
Procedure: (§1) The mucosal mast-cell-derived rat basophilic leukemia cells (RBL-2H3) were purchased from Bioresource Collection and Research Center (Hsin-Chu, Taiwan). The cells were cultured in DMEM containing 10% FBS, 100 U/mL penicillin, and 100 μg/mL streptomycin in 10 cm cell culture dishes at 37 °C in a humidified chamber with 5% CO2 in air. The level of degranulation in RBL-2H3 cells was evaluated using β-hexosaminidase release assay induced by A23187 or antigen as reported before with some modifications. Briefly, the cells were seeded in a 96-well plate (2 × 10^4 cells/well, for the A23187-induced assay) or a 48-well plate (3 × 10^4 cells/well, for the antigen-induced assay) overnight. The cells for the antigen-induced assay were sensitized with anti-DNP IgE (0.5 μg/mL; Sigma) during seeding overnight. RBL-2H3 cells were then treated with the samples (0.5, 5, and 50 μM) for 30 min in Tyrode’s buffer with a maximal DMSO dose of 0.5%. For the A23187-induced assay, the cells were activated by addition of A23187 (final concentration 0.5 μM), while cells for the antigen-induced assay were activated by the addition of DNP-BSA (final concentration 100 ng/mL) for 30 min. Azelastine (10 μM) served as the positive control. The amount of β-hexosaminidase was detected using the method utilizing p-NAG as the substrate according to the procedure described before.
The viability of the RBL-2H3 cells in the presence of the samples (10 and 100 μM) was determined using the methylthiazole tetrazolium (MTT) assay according to a previous method.

RBL-2H3 cells [2] = assay: A23187-induced degranulation (β-hexosaminidase release) assay; assay type: cell-based; conditions: Rattus norvegicus; for IC50: RBL-2H3, read-out: Inhibition of A23187-Induced Degranulation IC50
Procedure: as §1

RBL-2H3 cells [3] = assay: Antigen (anti-DNP IgE plus DNP-BSA)-induced degranulation (β-hexosaminidase release) assay; assay type: cell-based; conditions: Rattus norvegicus; for IC50: RBL-2H3, read-out: Inhibition of Antigen-Induced Degranulation IC50
Procedure: as §1

human neutrophils [4] = assay: Elastase release in fMLF/CB-induced human neutrophils; assay type: cell-based; conditions: Neutrophil, read-out: Elastase Release in Human Neutrophils IC50
Procedure: (§2) The human neutrophils were obtained from venous blood of healthy adult volunteers (20–30 years old) following the reported procedure. Elastase release by the activated neutrophils was determined using elastase substrate (N-methoxysuccinyl-Ala-Ala-Pro-Val-p-nitroanilide) according to the previous methodology. The tested samples’ concentration was 1 to 10 μM and the total incubation time in fMLF/CB-induced cells was 15 min. Genistein was used as the positive control. Cytotoxicity test was performed based on the release of LDH stored in the cytoplasm out of the cells. Briefly, preheated (37 °C, 5 min, 1 mM CaCl2) human neutrophils (6 × 10^5 cells·mL^−1) were incubated with test compounds for 15 min. Total LDH release control was represented as completely lysed cells by 0.1% of Triton X-100 solution incubated with cells for 30 min. The cells were centrifuged at 4 °C for 200× g for 8 min, and LDH reagent was added to supernatant and reacted at room temperature for 30 min in the dark. The absorbance was then measured at 492 nm, and the LDH release was calculated and compared to the total LDH release set as 100%.

[5] = Lactate dehydrogenase (LDH) viability assay in human neutrophils; assay type: cell-based; conditions: human, human neutrophils; 10 μM; based on lactate dehydrogenase release; mean ± S.E.M. (n = 3); read-out: Cell viability, Human Neutrophils
Procedure: as §2

human neutrophils [6] = assay: as above; assay type: cell-based; conditions: cell viability assay based on lactate dehydrogenase release
Procedure: as §2

[7] = molecular target: T1, human neutrophil elastase (Homo sapiens, UniProt P08246); assay: Elastase enzymatic activity (cell-free); assay type: biochemical; conditions: mean ± S.E.M. (n = 3)
T1 construct: followed by fMLF (0.1 μM) for 20 min to release the elastase from the cells; endogenous in cells; host or cells: human neutrophils; degranulation supernatant after CB/fMLF stimulation
T1 sequence (P08246 30-247 limits assumed): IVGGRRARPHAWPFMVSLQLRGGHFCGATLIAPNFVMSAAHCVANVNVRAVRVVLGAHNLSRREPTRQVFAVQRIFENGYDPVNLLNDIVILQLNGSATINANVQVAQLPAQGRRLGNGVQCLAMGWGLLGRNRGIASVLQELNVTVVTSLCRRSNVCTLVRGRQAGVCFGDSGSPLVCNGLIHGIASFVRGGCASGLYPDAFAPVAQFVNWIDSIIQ
Procedure: The compounds were further tested for direct inhibition of elastase enzymatic activity. The neutrophil suspension (6 × 10^5 cells mL^−1) was preheated for 5 min in the presence of CaCl2 (1 mM) at 37 °C. Priming agent CB (1.5 μg mL^−1) was added for 2 min, followed by fMLF (0.1 μM) for 20 min to release the elastase from the cells. After centrifugation at 1000 g for 5 min at 4 °C, the supernatant containing elastase was preheated at 37 °C for 5 min, and the test compounds were added. Then, 0.1 mM of substrate methoxysuccinyl-Ala-Ala-Pro-Val-p-nitroanilide was added for 10 min. The effect of the compounds on elastase enzymatic activity was quantified by measuring the absorbance at 405 nm.

[8] = design: method as in PMID 29763312; conditions: via reducing the levels of histamine and mouse mast cell proteinases; cited from earlier work
[9] = 100 μM, MTT viability assay, compared with untreated control (DMSO), n = 3, read-out: Cell Viability, RBL-2H3
[10] = RBL-2H3, read-out: Inhibition of A23187-induced degranulation
[11] = RBL-2H3, read-out: Inhibition of antigen-induced degranulation

| Compound | IC50 (RBL-2H3 cells [2]) | IC50 (RBL-2H3 cells [3]) | IC50 (human neutrophils [4]; Homo sapiens) | viability at 100 µM [1, 9] | viability at 15 min, 10 µM [5] | Toxicity to human neutrophils (in words) (human neutrophils [6]) | IC50 [7] | also measured |
| --- | --- | --- | --- | --- | --- | --- | --- | --- |
| CC(C)=CCc1cc(C=O)ccc1O [4-hydroxy-3-(3-methylbut-2-enyl)benzaldehyde] | > 100 µM | > 100 µM | > 10 µM | – | – | – | – | viability at 100 µM [1]: > 90% |
| CN1CCCC(n2nc(Cc3ccc(Cl)cc3)c3ccccc3c2=O)CC1 (stereo not drawn) [Azelastine, reference compound] | – | – | – | – | – | – | – | inhibition at 10 µM (RBL-2H3 cells [2]; RBL-2H3, 10 μM, mean ± S.E.M. (n = 3), read-out: Inhibition of A23187-induced degranulation): 34.5%; inhibition at 10 µM (RBL-2H3 cells [3]; RBL-2H3, 10 μM, mean ± S.E.M. (n = 3), read-out: Inhibition of antigen-induced degranulation): 35.5% |
| COC(=O)[C@]1(Cc2ccc(O)c(CC=C(C)C)c2)OC(=O)C(O)=C1c1ccc(O)cc1 [Butyrolactone I (1), butyrolactone I] | 39.7 µM | 41.6 µM | 2.3 ± 0.27 µM | > 90% | 94.1 ± 2.31% | non-toxic | 16.7 ± 2.64 µM | inhibition at 10 µM (RBL-2H3 cells [2]; [10]): 26%; inhibition at 100 µM (RBL-2H3 cells [2]; [10]): 98.7%; inhibition at 10 µM (RBL-2H3 cells [3]; [11]): 30%; inhibition at 100 µM (RBL-2H3 cells [3]; [11]): 87%; Effect on ovalbumin-induced allergy symptoms [8]: alleviating ovalbumin-induced allergy symptoms |
| COC(=O)[C@]1(Cc2ccc(O)c(CC3OC3(C)C)c2)OC(=O)C(O)=C1c1ccc(O)cc1 (stereo partly drawn) [Butyrolactone III (2), butyrolactone III] | > 100 µM | > 100 µM | > 10 µM | > 90% | 98.2 ± 1.77% | non-toxic | > 30 µM | – |
| O=c1c(-c2ccc(O)cc2)coc2cc(O)cc(O)c12 [Genistein, reference compound] | – | – | – | – | – | – | – | IC50 (human neutrophils [4]; fMLF/cytochalasin B (CB)-induced human neutrophils, mean ± S.E.M. (n = 3)): 32.7 µM |
| C=C1C[C@]2(O)[C@@]3(C)CCC(=O)C(C)(C)C3=C(O)C(=O)[C@@]2(C)[C@@H]2C(=O)O[C@@](C)(C(=O)OC)C(=O)[C@@]12C [Terretonin (3), terretonin] | > 100 µM | > 100 µM | > 10 µM | > 90% | – | – | – | – |
